Data on 30 compounds can be found in patent US9187425B2, “2,5-disubstituted arylsulfonamide CCR3 antagonists” (Axikin Pharmaceuticals, Inc., priority 2009, dated 2015).

Each structure is given as a SMILES string. A value given as a limit tells only on which side of the number the result lay.

The target of this assay is T1, CCR3 (UniProt P51677).
T1 sequence (P51677 1-355): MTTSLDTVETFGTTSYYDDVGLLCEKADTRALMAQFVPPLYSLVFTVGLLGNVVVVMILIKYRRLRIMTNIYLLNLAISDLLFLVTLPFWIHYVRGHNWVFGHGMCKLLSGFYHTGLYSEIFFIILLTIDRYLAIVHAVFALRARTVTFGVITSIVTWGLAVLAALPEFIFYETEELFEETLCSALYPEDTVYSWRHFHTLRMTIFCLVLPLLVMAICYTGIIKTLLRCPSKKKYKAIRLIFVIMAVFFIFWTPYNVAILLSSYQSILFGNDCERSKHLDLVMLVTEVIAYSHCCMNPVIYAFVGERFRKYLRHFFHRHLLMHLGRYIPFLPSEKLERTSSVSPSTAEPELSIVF
The assay is described as follows: CCR3 Receptor Binding Assay ([125I]-labeled human eotaxin/CCL11 displacement on cells). As to conditions: 0.1 nM [125I]-labeled human eotaxin/CCL11, 60 min at room temperature, 2×10^5 cells/well. The procedure: Cells were washed once with PBS and resuspended in a binding buffer (25 mM HEPES pH 7.6, 5 mM MgCl2, 1 mM CaCl2, 0.5% BSA, 0.1% NaN3). […] of cell suspension (2×10^5 cells/well) and 0.1 nM [^125I]-labeled human eotaxin/CCL11 (2000 Ci/mmol specific activity) were mixed in a 96-well U-bottom polypropylene plate, and incubated for 60 min at room temperature for the binding reaction. The cell suspension was then transferred to a filtration plate (#MAFB, Millipore), and washed 3 times with the binding buffer containing 0.5 M NaCl, scintillant added, and the radioactivity was counted on a TopCount (Packard). For the determination of non-specific binding, the cell suspension and [^125I]-labeled human eotaxin/CCL11 were incubated in the presence of 500 nM of unlabeled human eotaxin/CCL11. See, Iino et al., “Molecular cloning and functional characterization of cynomolgus monkey (Macaca fascicularis) CC chemokine receptor, CCR3,” Cytokine 2002, 19, 276-286.
Biological results are summarized in Table 1, wherein A represents a value no greater than 50 nM, and B represents a value greater than 50 nM but no greater than 500 nM, C represents a value greater than 500 nM but no greater than 5 μM, and D represents a value greater than 5 μM.

With `N#Cc1ccc(Sc2cc(Cl)cc(Cl)c2)c(S(=O)(=O)N2CCNC(=O)C2)c1` [Compound 11], the Ki was not above 50 nM.

Compound `N#Cc1ccc(Sc2cc(Cl)cc(Cl)c2)c(S(=O)(=O)N2CCOCC2)c1` [Compound 12] registered a Ki not above 50 nM.

With `Cc1cc(C)cc(Sc2ccc(C#N)cc2S(=O)(=O)N2CCNC(=O)C2)c1` [Compound 10], the Ki was not above 50 nM.

In turn, `N#Cc1ccc(Sc2cc(C(F)(F)F)cc(C(F)(F)F)c2)c(S(=O)(=O)N2CCSCC2)c1` [Compound 19] gave a Ki of more than 5000 nM.

The compound `CC1CCN(S(=O)(=O)c2cc(C#N)ccc2Sc2cc(Cl)cc(Cl)c2)CC1` [Compound 6] registered a Ki of more than 5000 nM.

`CC1CN(S(=O)(=O)c2cc(C#N)ccc2Sc2cc(Cl)cc(Cl)c2)CC(C)N1` (stereo not drawn) [Compound 28] returned a Ki not above 50 nM.

Compound `N#Cc1ccc([S+]([O-])c2cc(Cl)cc(Cl)c2)c(S(=O)(=O)N2CCCCC2)c1` (stereo not drawn) [Compound 2] yielded a Ki of more than 5000 nM.

Turning to `N#Cc1ccc(Sc2cc(C(F)(F)F)cc(C(F)(F)F)c2)c(S(=O)(=O)N2CCS(=O)(=O)CC2)c1` [Compound 20], the Ki is more than 5000 nM.

In turn, `N#Cc1ccc(Sc2cc(C(F)(F)F)cc(C(F)(F)F)c2)c(S(=O)(=O)N2CCOCC2)c1` [Compound 18] showed an inhibition constant Ki of 500 to 5000 nM.

Consider `Cc1cc(C)cc(Sc2ccc(C#N)cc2S(=O)(=O)N2CCCCC2)c1` [Compound 4], for which the Ki is not above 50 nM.

Consider `N#Cc1ccc(Sc2cc(Cl)cc(Cl)c2)c(S(=O)(=O)N2CCS(=O)(=O)CC2)c1` [Compound 14], for which the Ki was not above 50 nM.

For the compound `CC1CN(S(=O)(=O)c2cc(C#N)ccc2Sc2cc(Cl)cc(Cl)c2)CC(C)N1` (stereo not drawn) [Compound 29], the Ki was not above 50 nM.

For the compound `N#Cc1ccc(Sc2cc(Cl)cc(Cl)c2)c(S(=O)(=O)N2CCCCC2)c1` [Compound 1], the Ki was 50 to 500 nM.

`Cc1cc(C)cc(Sc2ccc(C#N)cc2S(=O)(=O)N2CCC(C)CC2)c1` [Compound 5] registered a Ki of more than 5000 nM.

`N#Cc1ccc(Sc2cc(Cl)cc(Cl)c2)c(S(=O)(=O)N2CCS(=O)(=O)CC2)c1` [Compound 23] showed a Ki not above 50 nM.

In turn, `CC(C)N1CCN(S(=O)(=O)c2cc(C#N)ccc2Sc2cc(Cl)cc(Cl)c2)CC1=O` [Compound 31] returned a Ki not above 50 nM.

`Cc1cc(C)cc(Sc2ccc(C#N)cc2S(=O)(=O)N2CCS(=O)(=O)CC2)c1` [Compound 17] gave a Ki not above 50 nM.

The compound `CC1CC(C)CN(S(=O)(=O)c2cc(C#N)ccc2Sc2cc(Cl)cc(Cl)c2)C1` (stereo not drawn) [Compound 8] displayed a Ki of more than 5000 nM.

Compound `CC1CN(S(=O)(=O)c2cc(C#N)ccc2Sc2cc(Cl)cc(Cl)c2)CCN1` (stereo not drawn) [Compound 27] came in with a Ki not above 50 nM.

Turning to `N#Cc1ccc(Sc2cc(Cl)cc(Cl)c2)c(S(=O)(=O)N2CCC(F)CC2)c1` [Compound 7], the Ki is not above 50 nM.

`O=[N+]([O-])c1ccc(Sc2cc(Cl)cc(Cl)c2)c(S(=O)(=O)N2CCS(=O)(=O)CC2)c1` [Compound 30] displayed a Ki not above 50 nM.

`N#Cc1ccc(Sc2cc(Cl)cc(Cl)c2)c(S(=O)(=O)N2CCNC(=O)C2)c1` [Compound 9] registered a Ki not above 50 nM.

The compound `Cc1cc(C)cc(Sc2ccc(C#N)cc2S(=O)(=O)N2CCS(=O)(=O)CC2)c1` [Compound 26] returned a Ki of more than 5000 nM.

In turn, `N#Cc1ccc(S(=O)(=O)c2cc(Cl)cc(Cl)c2)c(S(=O)(=O)N2CCCCC2)c1` [Compound 3] gave a Ki of more than 5000 nM.

Take `O=[N+]([O-])c1ccc(Sc2cc(Cl)cc(Cl)c2)c(S(=O)(=O)N2CCSCC2)c1` [Compound 24]: the Ki was more than 5000 nM.

`COC(=O)C1CN(S(=O)(=O)c2cc(C#N)ccc2Sc2cc(Cl)cc(Cl)c2)CCN1` (stereo not drawn) [Compound 32] displayed a Ki not above 50 nM.

Compound `Cc1cc(C)cc(Sc2ccc(C#N)cc2S(=O)(=O)N2CCSCC2)c1` [Compound 16] registered a Ki of more than 5000 nM.

Regarding `Cc1cc(C)cc(Sc2ccc([N+](=O)[O-])cc2S(=O)(=O)N2CCSCC2)c1` [Compound 25], the Ki was more than 5000 nM.

`N#Cc1ccc(Sc2cc(Cl)cc(Cl)c2)c(S(=O)(=O)N2CCSCC2)c1` [Compound 13] displayed a Ki not above 50 nM.

In turn, `N#Cc1ccc(Sc2cc(Cl)cc(Cl)c2)c(S(=O)(=O)N2CCSCC2)c1` [Compound 21] showed a Ki of 50 to 500 nM.

As a reminder, the Ki is the dissociation constant of the complex between target and ligand, obtained from inhibition or displacement. Read a low Ki as higher affinity.
